The record followed here is patent US7317028B2, “Cell differentiation inducer” (Schering Aktiengesellschaft, priority 1996, dated 2008).

Where a name gives a salt, the structure may show the parent alone.

One data set has as its system A2780 cells. Nature of the data set: Test for induction of differentiation in A2780 cells (ALP activity, ALPmin). Type of data set: cell-based, human. To be noted: A2780 cells, 3 days incubation, minimum concentration of the drug inducing increase of ALP activity. The protocol: Increase of alkaline phosphatase (ALP) activity is known as an indicator for differentiation of human colon cancer cells. […] Thus, differentiation inducing action was evaluated using ALP activity as an indicator.
To each well of a 96-well plate was placed 0.1 mL of A2780 cells (15,000 cells/well) and the next day was added 0.1 mL of a sequential dilute of test solution with the medium. […] The reaction was quenched with 0.05 mL/well of 3N sodium hydroxide aq. For each well, an absorbance at 405 nm was measured to determine the minimum concentration of the drug inducing increase of ALP activity (ALPmin).

For `Nc1ccccc1NC(=O)c1ccc(CNC(=O)Oc2cccnc2)cc1`, the melting point was 209 °C (dec.).
With `Cl.Nc1ccccc1NC(=O)c1ccc(CNC(=O)c2ccccc2)cc1` [Example 1, N-(2-aminophenyl)-4-(N-benzoylaminomethyl)benzamide hydrochloride], the melting point lay in the range of 206 to 209 °C. Besides, the minimal effective concentration with A2780 cells (Homo sapiens, 72 h) amounted to 1 µM.
For `Nc1ccccc1NC(=O)c1ccc(CNC(=O)c2ccccc2Cl)cc1` [Example 2, N-(2-aminophenyl)-4-[N-(2-chlorobenzoyl)aminomethyl]benzamide] the same measures were 201 to 204 °C (dec.) and 3 µM.
On the same counts, the results for `Cl.Nc1ccccc1NC(=O)c1ccc(CNC(=O)c2ccccc2[N+](=O)[O-])cc1` [Example 3, N-(2-aminophenyl)-4-[N-(2-nitrobenzoyl)aminomethyl]benzamide hydrochloride] are 210 to 212 °C (dec.) and 3 µM.
On to `COc1cccc(C(=O)NCc2ccc(C(=O)Nc3ccccc3N)cc2)c1` [Example 5, N-(2-aminophenyl)-4-[N-(3-methoxybenzoyl)aminomethyl]benzamide], for which the melting point lay within 182 to 185 °C. The same compound registered a minimal effective concentration with A2780 cells (Homo sapiens, 72 h) of 1 µM.
On the same counts, the results for `COc1ccc(C(=O)NCc2ccc(C(=O)Nc3ccccc3N)cc2)cc1` [Example 6, N-(2-aminophenyl)-4-[N-(4-methoxybenzoyl)aminomethyl]benzamide] are 149 to 151 °C and 1 µM.
For `COc1cc(C(=O)NCc2ccc(C(=O)Nc3ccccc3N)cc2)cc(OC)c1OC` [Example 7, N-(2-aminophenyl)-4-[N-(3,4,5-trimethoxybenzoyl)aminomethyl]benzamide] the same measures were 208 to 210 °C (dec.) and 1 µM.
On the same counts, the results for `CN(C)c1ccc(C(=O)NCc2ccc(C(=O)Nc3ccccc3N)cc2)cc1` [Example 8, N-(2-aminophenyl)-4-[N-[4-(N,N-dimethyl)aminobenzoyl]aminomethyl]benzamide] are 216 to 219 °C (dec.) and 1 µM.
`Nc1ccccc1NC(=O)c1ccc(CNC(=O)c2ccc(C(F)(F)F)cc2)cc1` [Example 9, N-(2-aminophenyl)-4-[N-(4-trifluoromethylbenzoyl)aminomethyl]benzamide] had a melting point of 243 to 246 °C. Further, the minimal effective concentration with A2780 cells (Homo sapiens, 72 h) was 1 µM.
Regarding `Nc1ccccc1NC(=O)c1ccc(CNC(=O)c2ccccn2)cc1` [Example 12, N-(2-aminophenyl)-4-(N-picolinoylaminomethyl)benzamide], the melting point is 173 to 178 °C (dec.).
The compound `Cc1cccc(C(=O)NCc2ccc(C(=O)Nc3ccccc3N)cc2)n1` [Example 13, N-(2-aminophenyl)-4-[N-(6-methylpicolinoyl)aminomethyl]benzamide] came in with a melting point of 172 to 173 °C. Further, in the data set with A2780 cells (Homo sapiens, 72 h), the minimal effective concentration was determined as 1 µM.
With `Nc1ccccc1NC(=O)c1ccc(CNC(=O)c2cccnc2)cc1` [Example 14, N-(2-aminophenyl)-4-(N-nicotinoylaminomethyl)benzamide], the melting point fell in the range of 193 to 196 °C.
In the case of `Cc1ncccc1C(=O)NCc1ccc(C(=O)Nc2ccccc2N)cc1` [Example 15, N-(2-aminophenyl)-4-[N-(2-methylnicotinoyl)aminomethyl]benzamide], the melting point was 191 to 194 °C (dec.). For the same compound, the minimal effective concentration in the data set on A2780 cells (Homo sapiens, 72 h) was 3 µM.
Regarding `Cc1ccc(C(=O)NCc2ccc(C(=O)Nc3ccccc3N)cc2)cn1` [Example 16, N-(2-aminophenyl)-4-[N-(6-methylnicotinoyl)aminomethyl]benzamide], the melting point is 186 to 190 °C (dec.). For the same compound, the minimal effective concentration in the data set on A2780 cells (Homo sapiens, 72 h) was 3 µM.
For `Nc1ccccc1NC(=O)c1ccc(CNC(=O)c2cccnc2Cl)cc1` [Example 17, N-(2-aminophenyl)-4-[N-(2-chloronicotinoyl)aminomethyl]benzamide] the same measures were 176 to 178 °C (dec.) and 3 µM.
On the same counts, the results for `Nc1ccccc1NC(=O)c1ccc(CNC(=O)c2ccc(Cl)nc2)cc1` [Example 18, N-(2-aminophenyl)-4-[N-(6-chloronicotinoyl)aminomethyl]benzamide] are 205 to 208 °C (dec.) and 3 µM.
As to `Nc1ccccc1NC(=O)c1ccc(CNC(=O)c2ccncc2)cc1` [Example 19, N-(2-aminophenyl)-4-(N-isonicotinoylaminomethyl)benzamide], the melting point was 234 to 237 °C (dec.).
On the same count and under the same terms, the figure for `Nc1ccccc1NC(=O)c1ccc(CNC(=O)c2cnccn2)cc1` [Example 20, N-(2-aminophenyl)-4-[N-(pyrazin-2-yl)carbonylaminomethyl]benzamide] is 207 °C (dec.); for `Nc1ccccc1NC(=O)c1ccc(CNC(=O)c2cccs2)cc1` [Example 21, N-(2-aminophenyl)-4-[N-(thiophen-2-yl)carbonylaminomethyl]benzamide] it is 202 to 205 °C (dec.); for `Nc1ccccc1NC(=O)c1ccc(CNC(=O)c2ccco2)cc1` [Example 22, N-(2-aminophenyl)-4-[N-(furan-2-yl)carbonylaminomethyl]benzamide] it is 197 °C (dec.).
Turning to `Nc1ccccc1NC(=O)c1ccc(CNC(=O)c2ccc[nH]2)cc1` [Example 23, N-(2-aminophenyl)-4-[N-(pyrrol-2-yl)carbonylaminomethyl]benzamide], the melting point is 216 to 220 °C (dec.). The minimal effective concentration in the data set with A2780 cells (Homo sapiens, 72 h) was determined as 1 µM.
On to `CC(Oc1cccnc1)C(=O)NCc1ccc(C(=O)Nc2ccccc2N)cc1` (centres unmarked) [Example 47, N-(2-aminophenyl)-4-[N-[2-(pyridin-3-yl)oxy]propionylaminomethyl]benzamide], for which the melting point was 171 to 173 °C (dec.).
The same measure, in the same setting: for `Nc1ccccc1NC(=O)c1ccc(CNC(=O)OCC2=CN(c3ccccc3)CO2)cc1` [Example 62, N-(2-aminophenyl)-4-[N-(3-phenyloxazol-5-yl)methoxycarbonylaminomethyl]benzamide] the value was 192 to 195 °C.
Still for that read-out and setting: for `Cc1ccc(O)c(NC(=O)c2ccc(CNC(=O)OCc3cccnc3)cc2)c1` [Example 84, N-(2-hydroxy-5-methylphenyl)-4-[N-(pyridin-3-yl)methoxycarbonylaminomethyl]benzamide] the value was 155 to 155.5 °C; for `Nc1ccccc1NC(=O)Cc1cc2cc(NC(=O)OCc3cccnc3)ccc2o1` [Example 87, N-(2-aminophenyl)-5-[(pyridin-3-yl)methoxycarbonyl]aminobenzofuran-2-carboxyamide], 173 to 174 °C.
Compound `Nc1ccccc1NC(=O)c1ccc(NC(=O)Cc2ccccn2)cc1` [Example 110, N-(2-aminophenyl)-4-[(pyridin-2-yl)acetylamino]benzamide dihydrochloride] had a minimal effective concentration with A2780 cells (Homo sapiens, 72 h) of 3 µM.
Still for that read-out and setting: the figure for `Nc1ccccc1NC(=O)c1ccc(NC(=O)CCc2cccnc2)cc1Cl` [Example 113, N-(2-aminophenyl)-2-chloro-4-[3-(pyridin-3-yl)propanoylamino]benzamide] is 0.3 µM.
On to `Nc1ccccc1NC(=O)c1ccc(NC(=O)CCCc2cccnc2)cc1` [Example 118, N-(2-aminophenyl)-4-[[4-(pyridin-3-yl)butanoyl]amino]benzamide], for which the melting point is 165 to 167 °C (dec.).
On to `Nc1ccccc1NC(=O)c1cc2cc(NC(=O)CCc3cccnc3)ccc2o1` [Example 128, N-(2-aminophenyl)-5-[3-(pyridin-3-yl)propionamide]benzofuran-2-carboxyamide], for which the minimal effective concentration with A2780 cells is listed as 0.1 µM.
Regarding `Nc1ccc(OCC(=O)Nc2ccc(C(=O)Nc3ccccc3N)cc2)cc1` [Example 135, N-(2-aminophenyl)-4-[(4-aminophenoxyacetyl)amino]benzamide], in the data set on A2780 cells (Homo sapiens, 72 h), the minimal effective concentration turned out to be 3 µM.
`Nc1ccccc1NC(=O)c1ccc(-n2cc(COc3ccccc3)oc2=O)cc1` [Example 136, N-(2-aminophenyl)-4-(5-phenoxymethyl-1,3-oxazolin-2-on-3-yl)benzamide] came in with a minimal effective concentration in the data set with A2780 cells (Homo sapiens, 72 h) of 1 µM.
`Nc1ccccc1NC(=O)c1ccc(N2CC(COc3ccc([N+](=O)[O-])cc3)OC2=O)cc1` (centres unmarked) [Example 137, N-(2-aminophenyl)-4-[5-(4-nitrophenoxy)methyl-1,3-oxazolin-2-on-3-yl-yl]benzamide] yielded a minimal effective concentration in the data set with A2780 cells of 1 µM.
In turn, `Nc1ccccc1NC(=O)c1ccc(-n2cc(COc3cccnc3)oc2=O)cc1` [Example 139, N-(2-aminophenyl)-4-[5-(pyridin-3-yl)oxymethyl-1,3 oxazolin-2-on-3-yl]benzamide] came in with a minimal effective concentration in the data set on A2780 cells (Homo sapiens, 72 h) of 0.3 µM.
The same measure, in the same setting: the figure for `Nc1ccccc1NC(=O)c1ccc(-n2cc(COc3ccccn3)oc2=O)cc1` [Example 143, N-(2-aminophenyl)-4-[5-(pyridin-2-yl)oxymethyl-1,3-oxazolin-2-on-3-yl]benzamide] is 3 µM.
Compound `Nc1ccccc1NC(=O)c1ccc(CNc2c(NCc3cccnc3)c(=O)c2=O)cc1` [Example 144, N-(2-aminophenyl)-4-[N-[3-[(pyridin-3-yl)methylamino]cyclobuten-1,2-dion-4-yl]aminomethyl]benzamide] gave a melting point of 230 °C.
`Nc1ccccc1NC(=O)c1ccc(CN2CCN(Cc3cccnc3)C2=O)cc1` [Example 145, N-(2-aminophenyl)-4-[3-(pyridin-3-yl)methylimidazolin-2-on-1-yl]methylbenzamide] had a minimal effective concentration with A2780 cells of 3 µM.
